In ChEMBL document CHEMBL3885881, “DrugMatrix”:

Species: Rattus norvegicus
Assay: DrugMatrix - Regimen: Daily Repeat
Format: toxicity, organism-based, Sprague-Dawley
Parameters: regimen Daily Repeat, gender Male, age 6-8 weeks
Settings: in vivo, po, route oral GAVAGE, vehicle 100 % WATER; for ABSOLUTE BASOPHIL / ABSOLUTE EOSINOPHIL / ABSOLUTE LYMPHOCYTE / ABSOLUTE MONOCYTE / ABSOLUTE SEGMENTED NEUTROPHIL / BASOPHIL / EOSINOPHIL / ERYTHROCYTE COUNT / HEMATOCRIT / HEMOGLOBIN / LEUKOCYTE COUNT / LYMPHOCYTE / MEAN CORPUSCULAR HEMOGLOBIN / MEAN CORPUSCULAR HEMOGLOBIN CONCENTRATION / MEAN CORPUSCULAR VOLUME / MONOCYTE / NEUTROPHIL / NUCLEATED RED BLOOD CELLS / PLATELET COUNT: tissue Blood; for ALANINE AMINOTRANSFERASE / ALBUMIN / ALKALINE PHOSPHATASE / ASPARTATE AMINOTRANSFERASE / BLOOD UREA NITROGEN / CARBON DIOXIDE / CHLORIDE / CHOLESTEROL / CREATINE PHOSPHOKINASE / CREATININE / GLUCOSE / LACTATE DEHYDROGENASE / LIPASE / PHOSPHORUS / POTASSIUM / SODIUM / TOTAL BILIRUBIN / TOTAL PROTEIN / URIC ACID: tissue Plasma
[1] = 0 mg/kg, 72 h, dose level Control, time 3 day
[2] = 0 mg/kg, 120 h, dose level Control, time 5 day
[3] = 25 mg/kg, 72 h, dose level Low, time 3 day
[4] = 25 mg/kg, 120 h, dose level Low, time 5 day

CCC1(c2ccccc2)C(=O)NC(=O)NC1=O [PHENOBARBITAL]
ABSOLUTE BASOPHIL [1]: 0 CELLS/uL
ABSOLUTE EOSINOPHIL [1]: 32.5 CELLS/uL
ABSOLUTE LYMPHOCYTE [1]: 9305.83 CELLS/uL
ABSOLUTE MONOCYTE [1]: 43.83 CELLS/uL
ABSOLUTE SEGMENTED NEUTROPHIL [1]: 817.83 CELLS/uL
BASOPHIL [1]: 0%
EOSINOPHIL [1]: 0.33%
ERYTHROCYTE COUNT [1]: 5.38 x10E6/uL
HEMATOCRIT [1]: 33.63%
HEMOGLOBIN [1]: 13.17 G/DL
LEUKOCYTE COUNT [1]: 10.2 x10E3/uL
LYMPHOCYTE [1]: 91.17%
MEAN CORPUSCULAR HEMOGLOBIN [1]: 24.5 pg
MEAN CORPUSCULAR HEMOGLOBIN CONCENTRATION [1]: 39.13 G/DL
MEAN CORPUSCULAR VOLUME [1]: 62.53 fL
MONOCYTE [1]: 0.5%
NEUTROPHIL [1]: 8%
NUCLEATED RED BLOOD CELLS [1]: 0.17 /100WBC
PLATELET COUNT [1]: 858 x10E3/uL
ALANINE AMINOTRANSFERASE [1]: 55.67 u/L
ALBUMIN [1]: 4.07 G/DL
ALKALINE PHOSPHATASE [1]: 337 u/L
ASPARTATE AMINOTRANSFERASE [1]: 84 u/L
BLOOD UREA NITROGEN [1]: 13.17 mg/dL
CARBON DIOXIDE [1]: 34.17 mmol/L
CHLORIDE [1]: 99.33 MEQ/L
CHOLESTEROL [1]: 78.83 mg/dL
CREATINE PHOSPHOKINASE [1]: 576.83 u/L
CREATININE [1]: 0.17 mg/dL
GLUCOSE [1]: 152.67 mg/dL
LACTATE DEHYDROGENASE [1]: 147.83 u/L
LIPASE [1]: 9.5 u/L
PHOSPHORUS [1]: 10.78 mg/dL
POTASSIUM [1]: 6.34 MEQ/L
SODIUM [1]: 144.12 MEQ/L
TOTAL BILIRUBIN [1]: 0.18 mg/dL
TOTAL PROTEIN [1]: 6.08 G/DL
URIC ACID [1]: 0.65 mg/dL
ABSOLUTE BASOPHIL [2]: 0 CELLS/uL
ABSOLUTE EOSINOPHIL [2]: 31.17 CELLS/uL
ABSOLUTE LYMPHOCYTE [2]: 7918.33 CELLS/uL
ABSOLUTE MONOCYTE [2]: 58.33 CELLS/uL
ABSOLUTE SEGMENTED NEUTROPHIL [2]: 725.5 CELLS/uL
BASOPHIL [2]: 0%
EOSINOPHIL [2]: 0.33%
ERYTHROCYTE COUNT [2]: 5.32 x10E6/uL
HEMATOCRIT [2]: 33.53%
HEMOGLOBIN [2]: 13.17 G/DL
LEUKOCYTE COUNT [2]: 8.73 x10E3/uL
LYMPHOCYTE [2]: 90.33%
MEAN CORPUSCULAR HEMOGLOBIN [2]: 24.82 pg
MEAN CORPUSCULAR HEMOGLOBIN CONCENTRATION [2]: 39.33 G/DL
MEAN CORPUSCULAR VOLUME [2]: 63.12 fL
MONOCYTE [2]: 0.67%
NEUTROPHIL [2]: 8.67%
NUCLEATED RED BLOOD CELLS [2]: 0 /100WBC
PLATELET COUNT [2]: 1144.83 x10E3/uL
ALANINE AMINOTRANSFERASE [2]: 60.5 u/L
ALBUMIN [2]: 3.97 G/DL
ALKALINE PHOSPHATASE [2]: 343.17 u/L
ASPARTATE AMINOTRANSFERASE [2]: 80.83 u/L
BLOOD UREA NITROGEN [2]: 15 mg/dL
CARBON DIOXIDE [2]: 31 mmol/L
CHLORIDE [2]: 99.75 MEQ/L
CHOLESTEROL [2]: 71.5 mg/dL
CREATINE PHOSPHOKINASE [2]: 237.17 u/L
CREATININE [2]: 0.17 mg/dL
GLUCOSE [2]: 137 mg/dL
LACTATE DEHYDROGENASE [2]: 146.17 u/L
LIPASE [2]: 11.5 u/L
PHOSPHORUS [2]: 10.13 mg/dL
POTASSIUM [2]: 6 MEQ/L
SODIUM [2]: 145 MEQ/L
TOTAL BILIRUBIN [2]: 0.13 mg/dL
TOTAL PROTEIN [2]: 5.82 G/DL
URIC ACID [2]: 0.62 mg/dL
ABSOLUTE BASOPHIL [3]: 0 CELLS/uL
ABSOLUTE EOSINOPHIL [3]: 0 CELLS/uL
ABSOLUTE LYMPHOCYTE [3]: 9305.33 CELLS/uL
ABSOLUTE MONOCYTE [3]: 110 CELLS/uL
ABSOLUTE SEGMENTED NEUTROPHIL [3]: 784.67 CELLS/uL
BASOPHIL [3]: 0%
EOSINOPHIL [3]: 0%
ERYTHROCYTE COUNT [3]: 5.23 x10E6/uL
HEMATOCRIT [3]: 33.43%
HEMOGLOBIN [3]: 13.03 G/DL
LEUKOCYTE COUNT [3]: 10.2 x10E3/uL
LYMPHOCYTE [3]: 92.33%
MEAN CORPUSCULAR HEMOGLOBIN [3]: 24.97 pg
MEAN CORPUSCULAR HEMOGLOBIN CONCENTRATION [3]: 39 G/DL
MEAN CORPUSCULAR VOLUME [3]: 63.97 fL
MONOCYTE [3]: 0.67%
NEUTROPHIL [3]: 7%
NUCLEATED RED BLOOD CELLS [3]: 0 /100WBC
PLATELET COUNT [3]: 972.33 x10E3/uL
ALANINE AMINOTRANSFERASE [3]: 52.33 u/L
ALBUMIN [3]: 4 G/DL
ALKALINE PHOSPHATASE [3]: 326.67 u/L
ASPARTATE AMINOTRANSFERASE [3]: 74.67 u/L
BLOOD UREA NITROGEN [3]: 12 mg/dL
CARBON DIOXIDE [3]: 35 mmol/L
CHLORIDE [3]: 97.5 MEQ/L
CHOLESTEROL [3]: 87.67 mg/dL
CREATINE PHOSPHOKINASE [3]: 212 u/L
CREATININE [3]: 0.15 mg/dL
GLUCOSE [3]: 146.33 mg/dL
LACTATE DEHYDROGENASE [3]: 153.33 u/L
LIPASE [3]: 12 u/L
PHOSPHORUS [3]: 11.73 mg/dL
POTASSIUM [3]: 6.16 MEQ/L
SODIUM [3]: 143.95 MEQ/L
TOTAL BILIRUBIN [3]: 0.2 mg/dL
TOTAL PROTEIN [3]: 5.83 G/DL
URIC ACID [3]: 0.83 mg/dL
ABSOLUTE BASOPHIL [4]: 0 CELLS/uL
ABSOLUTE EOSINOPHIL [4]: 0 CELLS/uL
ABSOLUTE LYMPHOCYTE [4]: 5785.67 CELLS/uL
ABSOLUTE MONOCYTE [4]: 18.33 CELLS/uL
ABSOLUTE SEGMENTED NEUTROPHIL [4]: 262.67 CELLS/uL
BASOPHIL [4]: 0%
EOSINOPHIL [4]: 0%
ERYTHROCYTE COUNT [4]: 5.55 x10E6/uL
HEMATOCRIT [4]: 34.67%
HEMOGLOBIN [4]: 13.1 G/DL
LEUKOCYTE COUNT [4]: 6.07 x10E3/uL
LYMPHOCYTE [4]: 94.33%
MEAN CORPUSCULAR HEMOGLOBIN [4]: 23.57 pg
MEAN CORPUSCULAR HEMOGLOBIN CONCENTRATION [4]: 37.77 G/DL
MEAN CORPUSCULAR VOLUME [4]: 62.47 fL
MONOCYTE [4]: 0.33%
NEUTROPHIL [4]: 5.33%
NUCLEATED RED BLOOD CELLS [4]: 0 /100WBC
PLATELET COUNT [4]: 1109.67 x10E3/uL
ALANINE AMINOTRANSFERASE [4]: 55.33 u/L
ALBUMIN [4]: 4.13 G/DL
ALKALINE PHOSPHATASE [4]: 380.67 u/L
ASPARTATE AMINOTRANSFERASE [4]: 85 u/L
BLOOD UREA NITROGEN [4]: 17.67 mg/dL
CARBON DIOXIDE [4]: 32.67 mmol/L
CHLORIDE [4]: 100 MEQ/L
CHOLESTEROL [4]: 89.67 mg/dL
CREATINE PHOSPHOKINASE [4]: 357 u/L
